Source: PMC8694143 (Microbiology Spectrum, 2021)
No end group written: not given here.

Test system: MRSA ATCC 33592, ATCC 1683 and S. pseudintermedius SPC002
Assay: Bactericidal activity time course, short intervals
Type: cell-based, Staphylococcus aureus; Staphylococcus pseudintermedius
Conditions: 2× MIC, MH broth, 37°C
Protocol: Time-dependent inhibition of pathogens was measured using standing bacterial cultures treated with 2× MIC. Overnight cultures were diluted to 10^4 or 10^7 CFU/mL in 2 mL of MH broth supplemented with the appropriate peptide concentration or sterile water as a control. Standing cultures were then incubated at 37°C and 100 μL aliquots were removed at specified time intervals. For the panel of 7 MRSA strains, treatment intervals of 30 min, 4 h, 8 h, and 24 h were used. For MRSA ATCC 33592, ATCC 1683, and S. pseudintermedius SPC002, shorter intervals included 5, 30, 60, 120, 240, and 360 min. The 100-μL aliquots were plated using serial dilutions as necessary on LB agar, and CFU were counted as a measure of bacterial viability after 24 h. To normalize cell viability data, surviving cells in CFU/mL were compared to the initial bacterial inoculum of each strain and then expressed as a percentage of that concentration. All experiments were performed in triplicate with values reported as the mean with standard deviations. Statistical differences in the observed viability of bacteria treated with STIP3-29 were analyzed using a paired two-tailed Student’s t test comparing the pretreatment (0 h) viability to those observed at posttreatment time points using Stata v17.0 software.

TVGGLVKWILKTVKKFA-NH2 [STIP3-29]
Viability within 5 min of treatment (5 min, all three strains, normalized to the starting cell count): ≤ 40% | Recovery of viable bacteria after 2 h of treatment (2 h, detection limit 10 CFU/mL): inability to recover viable bacteria
